Measurements published in patent publication US12453725B2, “Treatment of inflammatory disease” (Celleron Therapeutics Limited, priority 2019, dated 2025).

Assays:
histone H3 acetylation = assay: Histone H3 acetylation, SW620 cells (western blot); format: cell-based, human; conditions: SW620, 72 hours
Procedure: Cell pellets were lysed in TNN buffer, for 30 minutes on ice and centrifuged for another 30 minutes at maximum speed at 4° C. Protein concentration was assessed by Bradford assay (Quick Start™ Bradford 1× Dye Reagent, Bio-Rad Laboratories, USA). After gel electrophoresis, proteins were transferred onto the PVDF membrane by means of Trans-Blot® Turbo™ Transfer System (Bio-Rad Laboratories, USA) and blocked by 1 h incubation in 5% skim milk (Merck Group, Germany) in PBST at RT. To confirm acetylation induced by CXD101, membranes were incubated with anti-H3 (ab1791, abcam) antibody, anti-H3Ack9 (ab10812, abcam) in case of CT26 cells, and for SW620 with H3Ack14 antibody (#7627, Cell Signaling) overnight, at 4° C. Next, membranes were washed and treated with secondary antibody for 1 h at RT. Chemiluminescent signals were detected by LICOR C-Digit (LI-COR Biosciences, USA), and the data quantified using ImageJ software (National Institutes of Health, USA).

colon26 cells = assay: RNAseq, colon26 cells in vitro; format: cell-based, mouse
Description: The RNAseq data was aligned to the reference M. musculus genome (mm10) with STAR aligner and analysed for differential expression. […] We further evaluated transcripts identified in the colon26 RNAseq at the single gene level, focusing on murine genes which are homologues of the immune-related genes identified in human SW620 cells, which included genes in the murine MHC H2 complex. A number of H2 genes including class I and class II genes were induced including H2-D1, DMA, DMB1 and EB1 (FIG. 6).
SW620 cells were seeded into 6-well plates and left to adhere overnight. Cells were treated with 1 μM, 10 μM of CXD101 for 48 h. CT26 cells were seeded onto 100 mm plates and treated with 2.7 μM and 10 μM CXD101 for 72 h. After treatment cells were harvested and total RNA extracted by means of Promega ReliaPrep™ RNA Cell Miniprep System (Promega, USA). RNA was dissolved in RNAse free water and stored in −80° C. for future analysis. RNA concentration was measured by NanoDrop 2000 (Thermo Fisher Scientific, USA). Samples were qualified for library preparation if […]. Library preparation with poly (A) enrichment was performed by BGI.

[1] = colon26 in vitro, log 2 FC >1, FDR 1%
[2] = out of 1142 differentially expressed genes

Cc1nn(C)cc1CN1CCC(c2ccc(C(=O)Nc3ccccc3N)cc2)CC1 [CXD101, N-(2-aminophenyl)-4-(1-[(1,3-dimethyl-1H-pyrazol-4-yl)methyl]piperidin-4-yl)benzamide]
acetylation on histone H3 lysine (histone H3 acetylation): increased level of acetylation | number of DEGs in vitro (colon26 cells; colon26 cells): 2502 | genes down-regulated (colon26 cells; [1]): 611 | genes up-regulated (colon26 cells; [1]): 1891 | immune-related DEGs, Immunome database (colon26 cells; [2]): 15% | immune-related DEGs, Import database (colon26 cells; [2]): 34% | immune-related DEGs, immunogenicity database (colon26 cells; [2]): 36%
